The results in this text go back to patent US5639726A, “Peptide mediated enhancement of thrombolysis methods and compositions” (The Regents of the University of Michigan, priority 1994, dated 1997).

Entries after “also recorded” stand apart in the source; their conditions may differ. Ends that are not written are not given here.

For assay [1], the target named is T1, PAI-1 (Homo sapiens, UniProt P05121).
T1 construct: made in house; host or cells: E. coli (vector pET3a)
Description: Kinetics of peptide annealing: residual PAI inhibitory activity assayed with β-trypsin and S-2222. The assay is classed as biochemical. The following applies: peptide 5.5 mM; 25° C. On the procedure:
PAI-1 (6.4 μM) was incubated with increasing concentrations of each peptide at 23° C. and the (T1/2) of PAI-1 inactivation was determined by measuring the PAI-1 activity remaining over time.
Peptides were dissolved in 1 mM HCl+1% TWEEN-80 (the three PAI peptides) (SEQ ID NOS: 1-3), or in 0.1M HEPES (SEQ ID NOS: 4-5), 0.1M NaCl, 0.1% PEG-8000, pH […] (the two consensus peptides). Peptides were annealed to active PAI by incubation of active PAI in 0.1M HEPES, 0.1M NaCl, 0.1% PEG-8000, pH 7.4 with a peptide in its solvent. Ten percent of the final incubation mixture consisted of the peptide solvent. Incubation was carried out at 25° C. until no PAI inhibitory activity remained as determined by kinetics rate assays with trypsin, described below. The final concentration of PAI in the incubation mixture was either 0.9 μM (for kinetics assays) or 6.3 μM (for gels and purification). The peptide concentrations varied greatly due to the individual solubilities and rates of insertion of each peptide. These concentrations are given in the legends of the appropriate figures.
During annealing of 0.9 μM PAI with a peptide, the residual inhibitory activity of PAI was measured after varying incubation times by assaying an aliquot of the sample with β-trypsin. Trypsin (1 nM final concentration) was added to the chromogenic substrate S-2222 (950 μM) with 27 nM PAI sample. The absorbance at 405 nm was measured continuously for at least 12.5 min in a Shimadzu UV-265 UV-visible spectrophotometer. The pseudo-first order rate constant of trypsin is an indirect measure of the amount of PAI that has lost inhibitory activity due either to annealing or to becoming latent. The rate constant of controls containing the peptide solvent but no peptide was subtracted from that of the experimental assays in order to correct for the effect of the simultaneous change of PAI from the active to the latent state.

The target in assay [2] is T1, PAI-1. Put plainly: SDS-PAGE of peptide treated PAI-1 reacted with tPA, uPA or trypsin. The following applies: for formation of SDS stable PAI-1:enzyme complexes after peptide treatment: free PAI-1 preincubated with peptide, then tPA (uPA or trypsin); for conversion of PAI-1 to a substrate (cleaved PAI-1): peptide treated PAI-1 reacted with tPA. The assay is classed as biochemical. Here is the method:
SDS-polyacrylamide gel electrophoresis (SDS-PAGE) under nonreducing conditions was carried out according to the method of Laemmli (Laemmli, 1970) on 10% gels. Native gel electrophoresis with 5% gels was carried out by omitting SDS and boiling from Laemmli's method. All gels were stained with Coomassie brilliant blue. Gels of PAI-peptide samples were scanned with an LKB Ultroscan XL Laser Densitometer to determine the relative amounts of peptide-annealed and latent PAI.
PAI that had been incubated with peptide was tested for inhibitory and substrate activity by incubating with tPA, uPA or trypsin. SDS-PAGE was then performed on the samples. Free PAI formed a complex band when incubated with any of the enzymes, as well as a faint band indicative of cleaved PAI. Because substoichiometric amounts of enzyme were used there was also a band for free PAI. When PAI was incubated with any of the peptides, the electrophoretic mobility was the same as that of free PAI after denaturing with SDS. When PAI was annealed to any of 8-mers, then allowed to react with tPA, uPA or trypsin, no PAI-enzyme complex band was seen.
SDS-PAGE was performed using a PhastSystem (Pharmacia), Upssala, Sweden, according to manufacturer's instructions. Gels were stained with Coomassie Brilliant Blue.
SDS-PAGE was performed to determine the effect of Thr-Val-Ala-Ser-Ser-Ser-Thr-Ala-Val-Ile-Val-Ser-Ala-Arg (SEQ ID NO: 1) on t-PA:PAI-1 complex formation in the presence and absence of vitronectin.

In the next assay the test system is platelet-rich clots. Put plainly: In vitro clot lysis assay, platelet-rich clots. The class given is biochemical, human. On the procedure: Blood samples were collected by peripheral venipuncture from normal subjects into acid-citrate-dextrose anticoagulant (0.8% w/v citric acid, 2.2% trisodium citrate, 2.45% dextrose) at a ratio of 6 volumes of blood to 1 volume of anticoagulant. Donors had not consumed aspirin for at least 7 days prior to phlebotomy. Washed platelets were prepared by repeated centrifugation as previously described (Fay et al., 1994), then resuspended in Tyrode's buffer (137 mM NACl, 2.68 mM KCl, 2 mM CaCl2, 1 mM MgCl2, 0.36 mM NaH2 PO4, 11.9 mM NaHCO3, 5 mM HEPES, 0.1% glucose, 0.35% bovine serum albumin, pH 7.35). Clot lysis assays were performed as previously described (Fay et al., 1994). […] The fluorescence of this dilution was measured and % clot lysis was calculated, as previously described (Fay et al., 1994). […] The capacity of P1-P14 peptide to accelerate fibrinolysis in vitro, both in the absence and presence of platelets was also evaluated. […] After 30 min at 37° C., fibrinolysis was initiated by the addition of t-PA (20 nM), and % clot lysis was determined 60 min later. […]

The target in assay [3] is T1, PAI-1. Put plainly: Kinetics of peptide annealing: residual PAI inhibitory activity assayed with β-trypsin and S-2222. Particulars: for k / kobs / t1/2 of PAI-1 inactivation: 25° C. The assay is classed as biochemical.

T1 sequence (P05121 24-402): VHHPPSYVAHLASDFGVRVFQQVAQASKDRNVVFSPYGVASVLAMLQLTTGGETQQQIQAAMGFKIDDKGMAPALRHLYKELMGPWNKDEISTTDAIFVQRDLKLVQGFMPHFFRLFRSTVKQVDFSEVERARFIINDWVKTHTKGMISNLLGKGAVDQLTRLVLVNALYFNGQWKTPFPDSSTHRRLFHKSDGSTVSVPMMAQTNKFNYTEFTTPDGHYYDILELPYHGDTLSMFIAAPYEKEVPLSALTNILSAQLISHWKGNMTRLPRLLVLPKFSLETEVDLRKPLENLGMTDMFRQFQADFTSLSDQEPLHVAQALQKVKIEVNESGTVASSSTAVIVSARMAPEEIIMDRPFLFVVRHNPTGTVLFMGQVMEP

Take “Ac-TVASSSTAVIVSAR [SEQ ID NO: 1, Thr-Val-Ala-Ser-Ser-Ser-Thr-Ala-Val-Ile-Val-Ser-Ala-Arg]”: the k result was “.014 M⁻¹ s⁻¹” at PAI-1 [1]; “.022 M⁻¹ s⁻¹” at PAI-1 [3] (peptide 1.5 mM); “.020 M⁻¹ s⁻¹” at PAI-1 [3] (peptide 3.5 mM); “.012 M⁻¹ s⁻¹” on PAI-1 [3] (peptide 7 mM); “.017 M⁻¹ s⁻¹” at PAI-1 [3] (peptide 9 mM). The entries for the “formation of SDS stable PAI-1:enzyme complexes after peptide treatment” value at PAI-1 [2] and on PAI-1 [2] (listed as P1-P14 peptide) were “no t-PA:PAI-1 complex formation was observed” and “inhibited complex formation”, respectively. The “PAI forms on SDS-PAGE” value is on record as “almost all of the PAI is in the latent conformation” on PAI-1 [2] (high peptide concentration) and “a significant substrate band formed along with the dominant latent PAI band” at PAI-1 [2] (low peptide concentration). The “conversion of PAI-1 to a substrate (cleaved PAI-1)” value is listed as “did not convert PAI-1 to a substrate form; also recorded: substrate form of PAI-1 was not generated” at PAI-1 [2] and “did not behave as a substrate” at PAI-1 [2] (listed as wt14-mer). In addition, in the assay with platelet-rich clots (70 μM peptide), the “tPA induced platelet rich clot lysis” value was “significant enhancement”. Also, in the assay with platelet-rich clots (2.5×10^8 platelets/mL, t-PA 75 pM, 8±3% without peptide), the “lysis of platelet-rich clots at 90 minutes” value was 41±12%. Further, at PAI-1 [3] (0.9 μM PAI, 64 μM peptide), the “half-life of PAI inactivation” value was 4.3 min. For the same substance, the kobs entry is “.12 h⁻¹” on PAI-1 [3] (peptide 1.5 mM); “.25 h⁻¹” at PAI-1 [3] (peptide 3.5 mM); “.28 h⁻¹” on PAI-1 [3] (peptide 5.5 mM); “.31 h⁻¹” at PAI-1 [3] (peptide 7 mM); “.54 h⁻¹” on PAI-1 [3] (peptide 9 mM). Besides, the “t1/2 of PAI-1 inactivation” value on PAI-1 [3] (peptide 1.5 mM) is 5.8 h; on PAI-1 [3] (peptide 3.5 mM), 2.7 h; at PAI-1 [3] (peptide 5.5 mM), 2.5 h; at PAI-1 [3] (peptide 7 mM), 2.2 h; at PAI-1 [3] (peptide 9 mM), 1.3 h.
